# Results as given in patent US4701458A (priority 1985, dated 1987).
# Where “and” joins values, the source holds several entries; their conditions need not be identical. Equal entries are not always repeated. Entries after “also recorded” stand apart in the source; their conditions may differ. Where two headings read alike, the source gives them in different places.
# Columns and labels:
# ST = details: cited from earlier work
# guanylate cyclase [1] = target: guanylate cyclase (Rattus norvegicus, UniProt P23897); experiment: biochemical; set-up: species or system Sprague-Dawley rat; details: for % Inhibition of ST-activated guanylate cyclase activity: ST-activated (6 units/ml); for % Inhibition of ST-activated guanylate cyclase activity / inhibition at 1000 µM: 1.0 mM; for inhibition at 10000 µM: 10 mM; for inhibition at 100 µM: 0.1 mM
# [2] = tested on: Escherichia coli heat-stable enterotoxin (ST)-induced intestinal fluid secretion; format: in vivo, suckling mice; details: mouse, in vivo
# [3] = tested on: 8-bromo cyclic GMP-induced intestinal fluid secretion; set-up: species or system suckling mice; details: mouse, in vivo
# [4] = tested on: basal intestinal fluid secretion; set-up: species or system suckling mice; details: mouse, in vivo
# guanylate cyclase [5] = details: cited from earlier work
# [6] = tested on: intestinal fluid secretion; details: in vivo; cited from earlier work
# [7] = read-out: % Inhibition of ST-activated guanylate cyclase activity, ST-activated (6 units/ml)
# [8] = read-out: % Inhibition of basal guanylate cyclase activity, basal
# [9] = read-out: inhibition of ST-activated guanylate cyclase activity, ST-activated (6 ST units/ml)
# [10] = read-out: inhibition of basal guanylate cyclase activity, basal
# guanylate cyclase (Rattus norvegicus, UniProt P23897), sequence (P23897 23-1072): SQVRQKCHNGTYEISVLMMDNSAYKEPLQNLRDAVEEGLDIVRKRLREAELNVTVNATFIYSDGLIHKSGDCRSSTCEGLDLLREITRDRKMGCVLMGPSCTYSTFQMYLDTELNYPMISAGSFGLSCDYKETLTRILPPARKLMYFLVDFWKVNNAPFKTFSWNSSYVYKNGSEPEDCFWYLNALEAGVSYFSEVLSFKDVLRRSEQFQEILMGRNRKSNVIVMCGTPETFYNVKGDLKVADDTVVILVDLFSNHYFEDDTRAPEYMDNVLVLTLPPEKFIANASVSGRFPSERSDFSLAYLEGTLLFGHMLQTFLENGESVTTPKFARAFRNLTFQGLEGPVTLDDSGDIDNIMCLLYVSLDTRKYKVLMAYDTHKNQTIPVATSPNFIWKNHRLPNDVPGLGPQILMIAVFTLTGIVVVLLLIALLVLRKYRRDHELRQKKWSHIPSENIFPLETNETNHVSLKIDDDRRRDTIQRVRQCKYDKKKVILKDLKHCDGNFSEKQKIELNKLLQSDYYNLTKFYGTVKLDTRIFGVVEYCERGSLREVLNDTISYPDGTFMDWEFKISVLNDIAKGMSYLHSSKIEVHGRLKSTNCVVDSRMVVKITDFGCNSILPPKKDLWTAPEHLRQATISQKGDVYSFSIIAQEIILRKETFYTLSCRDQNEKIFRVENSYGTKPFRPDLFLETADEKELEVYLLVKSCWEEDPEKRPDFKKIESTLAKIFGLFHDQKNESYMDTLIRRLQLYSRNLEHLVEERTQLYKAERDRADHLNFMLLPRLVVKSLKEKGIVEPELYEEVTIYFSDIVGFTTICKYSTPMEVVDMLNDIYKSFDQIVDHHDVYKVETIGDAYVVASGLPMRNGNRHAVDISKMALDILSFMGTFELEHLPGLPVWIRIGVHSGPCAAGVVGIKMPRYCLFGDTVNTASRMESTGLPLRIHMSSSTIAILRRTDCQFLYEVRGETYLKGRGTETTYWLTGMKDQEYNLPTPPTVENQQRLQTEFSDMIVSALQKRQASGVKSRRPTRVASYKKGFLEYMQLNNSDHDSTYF
smiles,measurement,setting,value
O[C@H](CS)[C@H](O)CS (racemic) [dithiothreitol],effect on biological activity of ST (in words),ST,loses biological activity promptly
OCCS [2-mercaptoethanol],effect on biological activity of ST (in words),ST,loses biological activity promptly
"CC(=O)N[C@@H](CS)C(=O)O [Acetylcysteine, acetylcysteine]",% Inhibition of ST-activated guanylate cyclase activity,guanylate cyclase [1],14%
same,% Inhibition of ST-activated guanylate cyclase activity,guanylate cyclase [1]; listed as acetylcysteine,15%
same,effect on basal guanylate cyclase activity (in words),guanylate cyclase [1]; 1 mM,did not alter basal guanylate cyclase activity; also recorded: None of the other sulfhydryl compounds (1 mM) affected basal enzyme activity
same,inhibition at 1000 µM,guanylate cyclase [1]; [7],11 to 21%
same,inhibition at 1000 µM,guanylate cyclase [1]; [8],0%
same,effect on ST-induced responses (in words),[2],No significant inhibition
same,"intestinal fluid ratio (intestinal weight to remaining body weight), ST-induced",[2],0.0796±0.005 and 0.1061±0.005
same,effect on ST-induced secretion (in words),[2]; sc,no inhibition
same,"intestinal fluid ratio (intestinal weight to remaining body weight), ST-induced",[2]; sc,0.0804±0.003
same,"Intestinal:Body Wt. Ratio, 8-bromo cyclic GMP-induced",[3],0.1028 ± 0.003
same,"Intestinal:Body Wt. Ratio, 8-bromo cyclic GMP-induced",[3]; sc,0.1024 ± 0.003
same,effect on basal fluid level (in words),[4]; sc,not altered
same,effect on basal intestinal fluid level (in words),[4]; sc,not affected
COc1ccc(O)c(C(C)(C)C)c1 [Butylated hydroxyanisole],effect on ST activation of guanylate cyclase (in words),guanylate cyclase [5],significantly reduces
same,effect on ST-induced intestinal fluid secretion (in words),[6],significantly reduces
"NCCSSCCN [Cystamine, cystamine]",inhibition at 1000 µM,guanylate cyclase [1]; [7],73%
same,inhibition at 1000 µM,guanylate cyclase [1]; [8],45%
same,inhibition at 10000 µM,guanylate cyclase [1]; [9],82%
same,inhibition at 10000 µM,guanylate cyclase [1]; [10],54%
same,inhibition at 100 µM,"guanylate cyclase [1]; read-out: reduction in basal guanylate cyclase activity, basal",13%
same,inhibition at 100 µM,"guanylate cyclase [1]; read-out: reduction of ST-induced guanylate cyclase activity, ST-activated (6 ST units/ml)",32%
same,effect on ST-induced secretion (in words),[2],did not significantly affect ST-induced secretion
same,effect on ST-induced secretion (in words),[2]; sc,reduce ST-induced intestinal secretion; also recorded: significantly reduce secretion; also recorded: significantly reduced ST-induced secretion
same,"intestinal fluid ratio (intestinal weight to remaining body weight), ST-induced",[2]; sc,0.0935±0.003 and 0.1154± 0.006
same,"Intestinal:Body Wt. Ratio, 8-bromo cyclic GMP-induced",[3],0.1188 ± 0.003
same,effect on 8-bromo cyclic GMP-induced intestinal secretion (in words),[3],no effect
same,"Intestinal:Body Wt. Ratio, 8-bromo cyclic GMP-induced",[3]; sc,0.1115 ± 0.003
same,effect on basal intestinal fluid level (in words),[4]; sc,did not significantly alter basal intestinal fluid levels
same,effect on guanylate cyclase (in words),guanylate cyclase [5],very marked effects on guanylate cyclase activity; also recorded: almost completely inactivate
"N[C@@H](CCSC[C@H](N)C(=O)O)C(=O)O [Cystathionine, cystathionine]",effect on ST-activated guanylate cyclase activity (in words),"guanylate cyclase [1]; ST-activated, concentration not given",no effect
same,effect on basal guanylate cyclase activity (in words),guanylate cyclase [1]; concentration not given,no effect
same,effect on ST-induced fluid secretion (in words),[2],no alteration
same,effect on ST-induced fluid secretion (in words),[2]; sc,did not inhibit ST-induced fluid secretion
same,"Intestinal:Body Wt. Ratio, 8-bromo cyclic GMP-induced",[3],0.1043 ± 0.002
same,effect on 8-bromo cyclic GMP-induced intestinal secretion (in words),[3],no alteration
same,"Intestinal:Body Wt. Ratio, 8-bromo cyclic GMP-induced",[3]; sc,0.1175 ± 0.004
same,effect on basal responses (in words),[4],no alteration
same,effect on basal secretion (in words),[4]; sc,nor alter the basal secretory ratio
"NCCS [Cysteamine, cysteamine]",% Inhibition of ST-activated guanylate cyclase activity,guanylate cyclase [1],21%
same,% Inhibition of ST-activated guanylate cyclase activity,guanylate cyclase [1]; listed as cysteamine,21%
same,effect on basal guanylate cyclase activity (in words),guanylate cyclase [1]; 1 mM,did not alter basal guanylate cyclase activity; also recorded: did not affect basal activity
same,inhibition at 1000 µM,guanylate cyclase [1]; [7],11 to 21%
same,inhibition at 1000 µM,guanylate cyclase [1]; [8],0%
same,inhibition at 10000 µM,guanylate cyclase [1]; [9],63%
same,inhibition at 10000 µM,guanylate cyclase [1]; [10],15%
same,P of inhibition of ST-induced secretion (FIG. 2),[2],< 0.001
same,effect on ST-induced fluid secretion (in words),[2],most effective inhibitory agent
same,effect on ST-induced secretion (in words),[2],significantly reduced; also recorded: reduced secretion
same,"intestinal fluid ratio (intestinal weight to remaining body weight), ST-induced",[2],0.0804±0.005
same,intestinal-fluid ratio ± SEM,[2],.125 ± 0.003
same,"intestinal-fluid ratio ± SEM, experiment #1",[2],.127 ± .007
same,"intestinal-fluid ratio ± SEM, experiment #2",[2],.119 ± .006
same,effect on ST-induced ratio (in words),[2]; sc,not significantly changed
same,"intestinal fluid ratio (intestinal weight to remaining body weight), ST-induced",[2]; sc,0.0765±0.003 and 0.0840 ± 0.005
same,"Intestinal:Body Wt. Ratio, 8-bromo cyclic GMP-induced",[3],0.1106 ± 0.010
same,"Intestinal:Body Wt. Ratio, 8-bromo cyclic GMP-induced",[3]; sc,0.1071 ± 0.005
same,effect on basal secretion (in words),[4],did not alter basal secretion
same,effect on basal fluid level (in words),[4]; sc,not affected
N[C@H](CS)C(=O)O [D-cysteine],% Inhibition of ST-activated guanylate cyclase activity,guanylate cyclase [1],16%
same,effect on basal guanylate cyclase activity (in words),guanylate cyclase [1]; 1 mM,did not alter basal guanylate cyclase activity; also recorded: None of the other sulfhydryl compounds (1 mM) affected basal enzyme activity
same,inhibition at 1000 µM,guanylate cyclase [1]; [7],11 to 21%
same,inhibition at 1000 µM,guanylate cyclase [1]; [8],0%
same,"intestinal fluid ratio (intestinal weight to remaining body weight), ST-induced",[2],0.0768±0.002 and 0.1121±0.005
same,effect on ST-induced fluid responses (in words),[2]; sc,neither D- or L-cysteine inhibited ST-induced fluid responses
same,"Intestinal:Body Wt. Ratio, 8-bromo cyclic GMP-induced",[3],0.1191 ± 0.006
same,"Intestinal:Body Wt. Ratio, 8-bromo cyclic GMP-induced",[3]; sc,0.1155 ± 0.005
same,effect on basal intestinal fluid level (in words),[4]; sc,No effect on basal fluid level
